This is an account of results in article PMC6468543, “Rational Design, Synthesis and Preliminary Evaluation of Novel Fusarinine C-Based Chelators for Radiolabeling with Zirconium-89” (Biomolecules, 2019).

On the set-up of series [1]: method as in PMID 25941834. As to conditions: previously reported data; cited from earlier work.
Series [2] in a line: Acid dissociation study in 1000-fold molar excess of EDTA solution. The class given is physicochemical. Here is the method: (§1) Determination of the stability of [^89Zr]Zr-DFO, [^89Zr]Zr-TAFC, [^89Zr]Zr-FSC(succ)2AA and [^89Zr]Zr-FSC(succ)3 was carried out by incubating the radioligands in PBS, a 1000-fold molar excess of ethylenediaminetetraacetic acid (EDTA) solution (radioligand vs. […] Then, the precipitate was washed three times using CH3CN before analysis.

Details of series [3]: method as in PMID 25941834. The conditions noted are these: human serum, incubation time 7 days, previously reported data; cited from earlier work.
Series [4] can be described thus: Transchelation study: [89Zr]Zr-DFO with 1000-fold molar excess of FSC(succ)2AA or FSC(succ)3. The class given is physicochemical. The conditions noted are these: 1000-fold molar excess of FSC(succ)2AA or FSC(succ)3, RT, within 1 h. Here is the method: (§2) [^89Zr]Zr-DFO (50 µL) was mixed with a 1000-fold molar excess of either FSC(succ)2AA or FSC(succ)3 and [^89Zr]Zr-TAFC (or [^89Zr]Zr-FSC(succ)2AA, [^89Zr]Zr-FSC(succ)3) (50 µL each) was mixed with a 1000-fold molar excess of DFO and incubated for seven days at RT. At selected time points, aliquots of the solutions were analyzed in triplicate directly via analytical RP-HPLC. The transchelation was determined by the ratio of [^89Zr]Zr-DFO and [^89Zr]Zr-FSC derivatives.

On the set-up of series [5]: method as in PMID 25941834. As to conditions: incubation time 7 days, previously reported data; cited from earlier work.
Another series is described as follows: Solubility in water. The class given is physicochemical. The conditions noted are these: unlabeled chelator.
Series [6] is described as follows: Transchelation study: 89Zr-FSC derivative complexes with 1000-fold molar excess of DFO. The class given is physicochemical. As to conditions: RT, after 7 days. Here is the method: as §2
The nature of series [7]: MicroPET/CT imaging, image-based quantitation of bone uptake (knee). The class given is in vivo, BALB/c mice. The conditions noted are these: BALB/c mouse, i.v., 24 h p.i., mean of left and right knees, n = 1. Here is the method:
Micro-Positron Emission Tomography/computer tomography (MicroPET/CT) imaging studies were carried out using an Inveon microPET/CT scanner (Siemens Preclinical Solutions, Knoxville, TN, USA). Healthy female BALB/c mice were injected intravenously with 5 MBq of either [^89Zr]Zr-FSC(succ)3 (16 µg, n = 1) or [^89Zr]Zr-TAFC (13 µg, n = 1). MicroPET/CT images were acquired under general anesthesia (isoflurane/O2) for 20 min. Imaging data were recorded via static scans at 80 min and 24 h p.i. The microPET/CT scans were reconstructed and merged with OSEM3D-SPMAP (PET, matrix size 256 × 256) and Feldkamp (CT, Shepp Logan filter). For evaluation of bone uptake, image-based quantitation was carried out by selecting volumes of interest around each knee region and % ID/cm^3 were calculated for both time points (VivoQuant image analysis software, Invicro LLC, Boston, MA, USA) and expressed as mean values of left and right knees to compare both compounds.

A short description of series [8]: Distribution coefficient (logD), octanol/PBS. The class given is physicochemical. As to conditions: n = 5. Here is the method:
A volume of 500 µL PBS including 0.5 MBq radioligand ([^89Zr]Zr-FSC(succ)2AA or [^89Zr]Zr-FSC(succ)3) was combined with 500 µL octanol. The mixture was vortexed for 15 min, and centrifuged for 2 min at 2000 rcf. Subsequently, 50 µL aliquots of the aqueous and the octanol layer were collected, measured in a 2480 Wizard^2 Automatic Gamma Counter (Perkin Elmer, Vienna, Austria), and distribution coefficient (logD) values were calculated using Excel 2013 (n = 5) (Redmond, WA, USA).

The nature of series [9]: Biodistribution study in BALB/c mice. As to conditions: i.v., 6 h p.i., n = 4. The class given is in vivo. Here is the method:
For the evaluation of biodistribution, four female BALB/c mice (Charles River Laboratories, Sulzfeld, Germany) were intravenously injected with [^89Zr]Zr-FSC(succ)3 (1.5 MBq/mouse, 4.8 µg precursor) or [^89Zr]Zr-TAFC (1.5 MBq/mouse, 4 µg) into the tail vein and sacrificed by cervical dislocation at 6 h post injection (p.i.). Organs (spleen, pancreas, stomach, intestine, kidney, liver, heart, and lung), blood, muscle tissue, and bone were dissected, weighed and then measured in the gamma counter to calculate the percentage of injected dose per gram of tissue (% ID/g). Statistical analysis was performed using an independent two-population t-test (significance level p = 0.05) and Origin 6.1 software (Northampton, MA, USA).

A short description of series [10]: Protein binding assay in fresh human serum (size exclusion spin column). The class given is in vitro ADME. As to conditions: 37 °C, incubation time 7 days. Here is the method:
The protein binding property was evaluated by incubating [^89Zr]Zr-FSC(succ)2AA or [^89Zr]Zr-FSC(succ)3 for seven days at 37 °C in fresh human serum. Subsequently, 30 µL of the solution was passed through a size exclusion spin column (MicroSpinG-50 column, GE Healthcare, Buckinghamshire, UK) via centrifugation at 2000 rcf for 2 min. Protein binding of the complexes in triplicate was determined by measuring the activity on the column (non-protein bound) and the activity in the eluate (protein bound) in the gamma counter.
(In general: SEC sorts molecules by how far they enter the pores of the column.)

Series [11] is described as follows: Stability assay in human serum. It counts as in vitro ADME. The conditions noted are these: 37 °C, incubation time 7 days. Here is the method: as §1

“Also recorded” adds a separate entry of the source. Where two headings read alike, the source gives them in different places.

Turning to `CC(=O)N([O-])CCCCCNC(=O)CCC(=O)N([O-])CCCCCNC(=O)CCC(=O)N([O-])CCCCCN.[89Zr+4]` [[^89Zr]Zr-DFO, ^89Zr-desferrioxamine B], in series [1], the Log D – broadly, the decadic logarithm of the distribution of all forms, ionised or not, between an organic phase and buffer at a given pH – is given as −3.0 ± 0.1. For the same compound, the “acid dissociation (decomposition)” value in [2] (pH 4) is recorded as “totally decomposing on day 3”. In series [2] (pH 7, over seven days, 37 °C), this compound had a transchelation of approximately 60%. Moreover, the “Protein Binding (%)” value in series [3] is reported as 8.7 ± 1.0%. The “transchelation of 89Zr from [89Zr]Zr-DFO to FSC(succ)2AA or FSC(succ)3” value in [4] is reported as “Almost quantitative transchelation; also recorded: total transchelation”. Further, in series [5], the “Stability in Human Serum (%)” value is 99.3%.
For the compound `C/C1=C/C(=O)N(O)CCCC(NC(=O)CCC(=O)O)C(=O)OCC/C(C)=C\C(=O)N(O)CCCC(NC(=O)CCC(=O)O)C(=O)OCC/C(C)=C\C(=O)N(O)CCCC(NC(=O)CCC(=O)O)C(=O)OCC1` (stereo not drawn) [FSC(succ)3, Fusarinine C (succ)3], the solubility in water result in “Solubility in water” is reported as “high solubility in water”.
As to `CC1=CC(=O)N([O-])CCCC(NC(=O)CCC(=O)[O-])C(=O)OCCC(C)=CC(=O)N([O-])CCCC(NC(=O)CCC(=O)O)C(=O)OCCC(C)=CC(=O)N([O-])CCCC(NC(=O)CCC(=O)[O-])C(=O)OCC1.[89Zr+4]` (mixture of isomers) [[^89Zr]Zr-FSC(succ)3], the intact complex in [6] was 62.1%. The intact complex in series [2] (pH 4, day 7, 37 °C) is 87.9%. The compound further came in with an intact complex in series [2] (pH 6, 37 °C) of 97.8%. Moreover, the resistance to transchelation entry in series [2] (pH 7, over seven days, 37 °C) is reported as “excellent resistance to transchelation”. Besides, the “bone uptake in the knee” value in series [7] is reported as 0.026 % ID/cm^3. Besides, the “Log D” value in series [8] is reported as −3.5 ± 0.4. In [9], the activity in blood was 0.11 ± 0.08 % ID/g, the activity in bone was 0.24 ± 0.04 % ID/g, the activity in heart was determined as 0.28 ± 0.08 % ID/g and the activity in lung was found to be 0.21 ± 0.04 % ID/g. The compound also had an activity in muscle in [9] of 0.25 ± 0.07 % ID/g. The “Protein Binding (%)” value in [10] turned out to be 8.3 ± 3.5%. For the same compound, the “Stability in Human Serum (%)” value in series [11] is reported as 99.5%.
Regarding `CC(=O)NC1CCCN([O-])C(=O)C=C(C)CCOC(=O)C(NC(=O)CCC(=O)[O-])CCCN([O-])C(=O)C=C(C)CCOC(=O)C(NC(=O)CCC(=O)[O-])CCCN([O-])C(=O)C=C(C)CCOC1=O.[89Zr+4]` (mixture of isomers) [[^89Zr]Zr-FSC(succ)2AA], the intact complex is listed as 30.8% in [6] and 76% in [2] (pH 6, 37 °C). Also, the resistance to transchelation result in series [2] (pH 7, over seven days, 37 °C) is “excellent resistance to transchelation”. For the same compound, in series [8], the “Log D” value is on record as −3.3 ± 0.1. In [10], the “Protein Binding (%)” value came out at 5.9 ± 1.6%. Also, the “Stability in Human Serum (%)” value in [11] turned out to be 99.4%.
Turning to `CC(=O)NC1CCCN([O-])C(=O)/C=C(/C)CCOC(=O)C(NC(C)=O)CCCN([O-])C(=O)/C=C(/C)CCOC(=O)C(NC(C)=O)CCCN([O-])C(=O)/C=C(/C)CCOC1=O.[89Zr+4]` (stereo not drawn) [[^89Zr]Zr-TAFC, ^89Zr-triacetylfusarinine C, reference compound], the intact complex in [6] was 39.8%; in series [2] (pH 4, day 7, 37 °C), 70.3%; in [2] (pH 6, 37 °C), 94.4%. The “Log D” value in series [1] is −2.0 ± 0.0. In addition, the resistance to transchelation entry in series [2] (pH 7, over seven days, 37 °C) is given as “excellent resistance to transchelation”. Further, the “Protein Binding (%)” value in [3] is on record as 6.8 ± 0.5%. In addition, the “bone uptake in the knee” value in series [7] is listed as 0.016 % ID/cm^3. The compound further yielded an activity in blood in [9] of 0.05 ± 0.01 % ID/g. Besides, in series [5], the “Stability in Human Serum (%)” value was 99.5%.
Regarding `CC(=O)NC1CCCN(O)C(=O)/C=C(/C)CCOC(=O)C(NC(=O)CCC(=O)O)CCCN(O)C(=O)/C=C(/C)CCOC(=O)C(NC(=O)CCC(=O)O)CCCN(O)C(=O)/C=C(/C)CCOC1=O` (stereo not drawn) [FSC(succ)2AA, Fusarinine C(succ)2AA], in the series “Solubility in water”, the solubility in water entry was “high solubility in water”.
